{
  "source": "patent US8937194B2",
  "about": "“Topical compositions containing nitro fatty acids” (Nitromega Corp., priority 2008, dated 2015)",
  "assay": "Stability of 10-nitro oleic acid (OA-NO2) in olive oil, quantified by LC-MS/MS",
  "assay_type": "physicochemical",
  "description": "Stability experiments were conducted using Bertolli extra light olive oil. Methanol soluble impurities were extracted twice. […] Olive oil is highly hydrophobic and liposomes have been previously shown to stabilize nitrated linoleic acid. The composition of Olive oil used was as follows: total fat: 14 g, saturated fat: 9%, polyunsaturated fat: 9%, Monounsaturated Fat: 45%\nFirst, methanol-soluble substances were extracted from olive oil by applying 6 volumes of methanol per volume of oil and vortexing for a minute. The triglyceride containing fraction was obtained and the extraction was repeated. The remaining triglycerides were dried under vacuum to eliminate remaining organic solvents. […]\nAt the different time points, aliquot by triplicate were obtained, fatty acids were extracted from the triglyceride matrix using a 4:1 ratio of methanol:triglyceride, diluted to a final concentration of 100 nM and quantified using liquid chromatography coupled to mass spectrometry. […] The nitrated oleic acid was detected using the multiple reaction monitoring (MRM) process in the negative ion mode performed on a 4000 QTRAP triple quadrupole (Applied Biosystems). […] The peak areas were integrated using Analyst 1.5.1 software (Applied Biosystems) and external standard curves were performed for quantification purposes.",
  "data": [
    {"molecule": "CCCCCCCC/C(=C\\CCCCCCCC(=O)O)[N+](=O)[O-]", "note": "[10-nitro oleic acid]", "values": [
      {"measurement": "stability in olive oil (percentage of the starting concentration)", "setting": "750 μM in extracted Bertolli extra light olive oil, stored in the dark at 22° C., 37° C. and 50° C., periods of up to 20 days (FIG. 1: 19 days)", "value": "stable"},
      {"measurement": "decrease in stability after 135 days", "setting": "750 μM in olive oil, samples incubated at 22° C., 37° C., after 135 days", "value": "about 15%"}
    ]}
  ]
}
